Measurements taken from patent US20260209299A1, “TROP2 IMMUNOGENIC PEPTIDE” (ASTON SCIENCE INC., priority 2023, published 2026).

What was measured:
MDA-MB-231 cell line [1] = assay: Antitumor effect of cancer vaccine and antibody-drug conjugate (ADC) in Xenograft cancer mouse model; format: in vivo, athymic Balb/C nude mice; conditions: peptide mix + CFA/IFA + mGM-CSF subcutaneously days 1, 8, 15, 22; Trodelvy 0.81 mg/kg intravenously Days 4 and 11
Protocol: (§1) Five-week-old athymic Balb/C nude mice weighing 16 to 18 g were purchased and acclimated for at least 3 to 7 days.
(§2) The MDA-MB-231 cell line, a human-derived triple-negative breast cancer cell line, was suspended at 5×10^6 cells per individual in 200 μl of a 1:1 mixture of PBS and Matrigel and injected subcutaneously into the axillary region between the right scapular area and the thoracic wall of the mouse.
(§3) Next, the immunogenic peptide (TROP2 peptide) according to the present invention was administered subcutaneously at a dose of 100 μg per mouse on days 1, 8, 15, and 22 (the 16th day after cell transplantation was designated as Day 0, and the following day was designated as Day 1) for a total of 4 times, and the tumor size for each individual was calculated 11 times (0, 1, 4, 7, 11, 14, 18, 21, 25, 28, and 32) from Day 0 to Day 32. Then, the tumor growth change rate was calculated by comparison with the control group of each Test Group.
In order to confirm the antitumor effect of the combination therapy of the immunogenic peptide discovered in the present invention and antibody-drug conjugate (ADC), the antitumor effect was analyzed for the following groups using the same experimental method as in Example 4. […]

[2] = tested on: Type 1 helper T cells (CD4^+IFN-γ^+); assay: FACS analysis of Type 1 helper T cells (CD4+IFN-γ+) after peptide treatment of PBMCs; format: cell-based, human; conditions: for Combined Score: (A value×0.8)+(B value×0.2); for IFN-gamma − IL-10: A value: difference between distribution of IFN-γ secreting T cells and distribution of IL-10 secretion; for IFN-gamma − Treg: B value: difference between distribution of IFN-γ secreting T cells and Treg distribution; for IFN-gamma (Th1, CD4+): FACS, healthy human PBMCs, peptide 10 μg/ml with 1 μg/ml anti-CD3, 72 hours, then PMA/ionomycin + GolgiPlug 6 hours; for stimulation of Type 1 helper T cells (CD4+IFN-γ+), flow cytometry plot: FIG. 1, peptide together with PMA, ionomycin; for effect of stimulating Type 1 helper T cells while not stimulating Type 2 helper T cells and regulatory T cells: overall FACS conclusion, Table 2
Protocol: (§4) To this end, the degree of stimulation of Type 1 helper T cells (CD4^+IFN-γ^+), stimulation of interleukin 10 (IL-10)-producing regulatory T cells (CD4^+IL-10+), stimulation of regulatory T cells (CD4^+CD25^+Foxp3^+), and stimulation of Type 2 helper T cells secreting IL-4 and Th17 cells secreting IL-17 according to the treatment with the immunogenic peptide were confirmed.
(§5) Healthy human peripheral blood mononuclear cells (PBMCs; 2,000,000 cells per well) were cultured in 96× round bottom well plates in the presence or absence of anti-CD3 (clone HIT) and peptide at the indicated ratios.
(§6) Specifically, the peptide synthesized in Example 1 at a concentration of 10 μg/ml was cultured with 1 μg/ml of anti-CD3 in a 37° C. incubator for 72 hours. The culture medium consisted of complete RPMI1640 medium supplemented with 10% fetal bovine serum, 10 mM HEPES, 50 µM B-ME, and penicillin/streptomycin/L-glutamine. After 72 hours of culture, the cells were stimulated with Phorbol 12-myristate 13-acetate (50 ng/ml) and Ionomycine (1 μg/mL), which are intracellular cytokine secretion stimulators. To prevent cytokine secretion into the culture medium, the cells were co-stimulated with GolgiPlug, a protein transport inhibitor, at a concentration of 1/100 diluted in PBS for 6 hours in a 37° C. incubator. After stimulation, the cells were washed twice with PBS.
(§7) To determine only the viable cells among the PBMC cells, the cells were labeled with eFlor780-conjugated Fixable Viability dye diluted 1:100 in PBS for 15 minutes at 4° C., and washed twice with stain buffer after 15 minutes. After washing, the cells were surface-labeled with BV421-conjugated anti-CD4 (clone RPA-T4) and PE-Cy5-conjugated anti-CD25 (clone 2A3) antibodies diluted 1:100 in stain buffer for 30 minutes at 4° C. Then, the cells labeled with cell surface proteins were washed twice with stain buffer. Next, to detect cytokines secreted intracellularly, the cells were fixed for 1 hour at room temperature with fixation buffer and then washed with permeabilization buffer. To enable antibodies to detect intracellular cytokines, the fixed cells were labeled overnight at 4° C. with PerCP-Cy5. 5-conjugated anti-IFN-g (clone 4S. B3), Brilliant Violet 510-conjugated anti-IL-4 (clone MP4-25D2), anti-Foxp3 (clone PCH101), and PE-conjugated anti-IL-10 diluted 1:100 in permeabilization (clone JES3-19F1) buffer. Then, the cytokine-labeled cells were washed twice with stain buffer, and cell flow assays were performed using an Attune NxT Acoustic Focusing Cytometer (Invitrogen). Data analysis was performed using Flowjo v10.7.1 software (FlowJo).
1) Calculate the difference between the distribution of IFN-γ secreting T cells and the distribution of IL-10 secretion (A value),
2) Calculate the difference between the distribution of IFN-γ secreting T cells and the Treg distribution (B value),
3) Use the formula “(A value×0.8)+(B value×0.2)” as the final combined scoring, and
(§8) The activity results of the immunogenic peptide candidate group were confirmed by first isolating CD4^+ T cells (helper T cells) from PBMCs, and then classifying the isolated cells into Type 1 helper T cells (CD4^+IFN-γ^+), Type 2 helper T cells (CD4^+IL-4^+), regulatory T cells (CD4^+CD25^+Foxp3^+), and interleukin-10 (IL-10)-producing regulatory T cells (CD4^+IL-10^+) and analyzing the results.

[3] = tested on: interleukin 10 (IL-10)-producing regulatory T cells (CD4^+IL-10^+); assay: FACS analysis of IL-10-producing regulatory T cells (CD4+IL-10+) after peptide treatment of PBMCs; format: cell-based; conditions: healthy human PBMCs, peptide 10 μg/ml with 1 μg/ml anti-CD3, 72 hours, then PMA/ionomycin + GolgiPlug 6 hours
Protocol: as §5, §6, §7

[4] = tested on: regulatory T cells (CD4^+CD25^+Foxp3^+); assay: FACS analysis of regulatory T cells (CD4+CD25+Foxp3+) after peptide treatment of PBMCs; format: cell-based; conditions: healthy human PBMCs, peptide 10 μg/ml with 1 μg/ml anti-CD3, 72 hours, then PMA/ionomycin + GolgiPlug 6 hours
Protocol: as §4, §5, §6, §7, §8

[5] = tested on: Type 2 helper T cells (CD4^+IL-4^+); assay: FACS analysis of Type 2 helper T cells (CD4+IL-4+) after peptide treatment of PBMCs; format: cell-based, human; conditions: FIG. 2; peptide together with PMA, ionomycin
Protocol: as §4, §5, §6
as §7, with “(FlowJo). […]” for “(FlowJo).”

[6] = tested on: interferon-gamma (IFN-γ)-forming T cells; assay: ELISpot assay of IFN-γ-forming T cells using PBMC; format: cell-based; conditions: FIG. 5; human PBMCs, peptide 10 μg/mL, 70-72 hours
Protocol: The frequency of interferon-gamma (IFN-γ, 3420-4HPW-10, MabTech, Stockholm, Sweden) and interleukin-10 (IL-10, 3430-4HPW-10, MabTech)-forming T cells was assessed using the ELISpot assay.
Specifically, the pre-coated plates were washed four times with 200 μL/well of PBS. Human PBMCs (PCS-800-011, ATCC, Virginia, USA) 2×10^6/mL were dispensed onto the coated plate, and TROP2 peptides were dispensed at 10 μg/mL each and reacted with the PBMCs. The plate reacted under a total volume of 200 μL/well was incubated at 5% CO2, 37° C. for 70-72 hours. Then, the plate was washed 5 times with 200 μL of PBS, and 200 μL of diluted detection antibody (IFN-γ:7-B6-1-biotin; IL-10:12G8-biotin) was added to the wells of the plate, and then reacted at room temperature for 2 hours. After the reaction, the plate was washed 5 times with 200 μL of PBS, and 1:1000 diluted streptavidin-HRP was added at 100 μL/well, followed by reaction at room temperature for 1 hour. Then, the resulting product was washed 5 times with 200 μL of PBS, 100 μL/well of TMB substrate solution was added and reacted at RT for up to 5-10 minutes, and then the spots were counted using the AID iSpot reader system (AID, Strassberg, Germany).

MDA-MB-231 cell line [7] = assay: Antitumor effect of cancer vaccine alone in Xenograft cancer mouse model; format: in vivo, athymic Balb/C nude mice; conditions: peptide + CFA/IFA + mGM-CSF, 100 μg per mouse subcutaneously on days 1, 8, 15, 22; vs control group G1
Protocol: as §1, §2
On Day 16 after MDA-MB-231 cell transplantation, 32 mice (mean tumor size 143.8±2.9 mm^3) with tumor sizes reaching approximately 150 mm^3 were selected and assigned to each group of 8 mice.
Each group was divided into Group 1 (G1): PBS+CFA/IFA, Group 2 (G2): SEQ ID NO: 3 peptide+CFA/IFA+mGM-CSF, Group 3 (G3): SEQ ID NO: 10 peptide+CFA/IFA+mGM-CSF, and Group 4 (G4): SEQ ID NO: 17 peptide+CFA/IFA+mGM-CSF.
as §3

Substance | TGI rate (%) at Day 32 (MDA-MB-231 cell line [1]) | Combined Score [2] | IFN-gamma − IL-10 [2] | IFN-gamma − Treg [2] | IFN-gamma (Th1, CD4+) [2] | IL-10 (Th2, CD4+) [3] | Treg (CD25+/Foxp3) [4] | stimulation of Type 1 helper T cells (CD4+IFN-γ+), flow cytometry plot [2] | effect of stimulating Type 1 helper T cells while not stimulating Type 2 helper T cells and regulatory T cells [2] | stimulation of Type 2 helper T cells (CD4+IL-4+), flow cytometry plot [5] | number of cells secreting IFN-γ (ELISpot spots) [6] | TGI rate (%) at Day 32 (MDA-MB-231 cell line [7])
sacituzumab govitecan [Trodelvy] | 46.1% |  |  |  |  |  |  |  |  |  |  | 
TLIYYLDEIPPKFSM [SEQ ID NO: 20] |  | 10.26 | 10.82% | 8.03% | 16.10% | 5.28% | 8.07% |  |  |  |  | 
AGLIAVIVVVVVALVAGMAVLVITNRRKSGKYKK [SEQ ID NO: 24] |  | 11.88 | 12.35% | 10.00% | 17.10% | 4.75% | 7.10% |  |  |  |  | 
ELRONTSQKAAGDVD (ELRQNTSQKAAGDVD) [SEQ ID NO: 17] |  | 20.02 | 21.27% | 15.03% | 23.20% | 1.93% | 8.17% | stimulated Type 1 helper T cells (CD4^+IFN-γ^+) to a high degree | most excellent | hardly stimulated Type 2 helper T cells (CD4^+IL-4^+) | dramatically increased the secretion of IFN-γ | 57.2%
SKCLLLKARMSAPKN [SEQ ID NO: 8] |  | 11.06 | 11.65% | 8.68% | 16.90% | 5.25% | 8.22% |  |  |  |  | 
SLRCDELVRTHHILIDLRHRPTAGAFN [SEQ ID NO: 11] |  | 11.16 | 11.71% | 8.97% | 17.20% | 5.49% | 8.23% |  |  |  |  | 
PLRLPLLLLVLAAVTGHTAAQD [SEQ ID NO: 3] |  | 20.36 | 21.66% | 15.16% | 24.00% | 2.34% | 8.84% | stimulated Type 1 helper T cells (CD4^+IFN-γ^+) to a high degree | most excellent | hardly stimulated Type 2 helper T cells (CD4^+IL-4^+) | dramatically increased the secretion of IFN-γ | 52.4%
RERYRLHPKFVAAVH [SEQ ID NO: 15] |  | 12.27 | 12.87% | 9.87% | 17.80% | 4.93% | 7.93% |  |  |  |  | 
PKFSMKRLTAGLIAVIV [SEQ ID NO: 22] |  | 11.25 | 11.75% | 9.25% | 16.90% |  | 7.65% |  |  |  |  | 
EPLQVERTLIYYLDE [SEQ ID NO: 19] |  |  |  |  |  |  |  |  |  |  | dramatically increased the secretion of IFN-γ | 
RGEPLQVERTLIYYL [SEQ ID NO: 18] |  | 19.62 | 20.80% | 14.89% | 22.90% | 2.10% | 8.01% | stimulated Type 1 helper T cells (CD4^+IFN-γ^+) to a high degree | most excellent | hardly stimulated Type 2 helper T cells (CD4^+IL-4^+) |  | 
LVRPSEHALVDNDGL [SEQ ID NO: 10] |  | 17.84 | 18.97% | 13.34% | 21.00% | 2.03% | 7.66% | stimulated Type 1 helper T cells (CD4^+IFN-γ^+) to a high degree | most excellent | hardly stimulated Type 2 helper T cells (CD4^+IL-4^+) | dramatically increased the secretion of IFN-γ | 38.5%
